The source of these data is patent US20260335288A1, “Pharmacologic Targeting of Genetic Factors That Control Jet Lag” (University of Pittsburgh-Of the Commonwealth System of …, priority 2022, published 2026).

Assay [1] concerns human pulmonary artery endothelial cells (PAECs). Kind of assay: Caspase-Glo 3/7 apoptosis assay in human pulmonary artery endothelial cells. It is filed as cell-based. Particulars: compound 173 treatment, 5 mM (so in the source), FIG. 5 panels A & D. Here is the method: (§1) Cell Culture. Primary human pulmonary artery endothelial cells (HPAECs) or mouse fibroblasts harboring a luciferase reporter under the control of a Period 2 (PER2) promoter (MF-Luc) were seeded into tissue culture dishes (Perkin Elmer) in a humidified incubator at 37 °C and 5% CO2. For knockdown experiments, cells were pre-treated with 20 nM “Silencer Select” scrambled silencing RNA (siNC) or with antisense targeting of Np/(siNPL) for 48 hours (ThermoFisher). For chemical treatments, cells were treated with vehicle (DMSO) or 5 mM 173.
Apoptosis. Apoptosis was measured using the Caspase-Glo 3/7 Assay System (Promega) according to the manufacturer's instructions.

Assay [2] has the same test system. Put plainly: BrdU cell proliferation assay in human pulmonary artery endothelial cells. Type of assay: cell-based. The settings on record: compound 173 treatment, 5 mM (so in the source), FIG. 5 panels B & E. Here is the method:
as §1
Cell Proliferation. Cell proliferation was measured using the BrdU Cell Proliferation Assay Kit (Cell Signaling Technologies) according to the manufacturer's instructions.

For assay [3], the system named is MF-Luc cells. Put plainly: Lumicycle recording of circadian period in MF-Luc cells (PER2 promoter luciferase reporter). The settings on record: compound 173 treatment, 5 mM (so in the source), recorded 7 days, FIG. 4 and FIG. 5 panels C & F. Type of assay: cell-based, mouse. Here is the method:
as §1
Lumicycle Recording. Prior to circadian measurement, cells were synchronized with […] forskolin (Sigma) in Dulbecco's Modified Eagle Medium (DMEM) supplemented with 0.1% fetal bovine serum, and 100 mM Beetle luciferin (Promega) luciferase substrate was added for bioluminescent recording. Culture dishes were then sealed with sterile vacuum grease and placed in the Lumicycle 96 (Actimetrics) in a dehumidified incubator at 37 °C. Luminescence was recorded continuously for 7 days, and the initial 12 hours of data was omitted from the analysis to allow time for cell synchronization. […] Period was calculated as 2p/w. Period was analyzed if the R^2 was greater than 0.8.
A general note: A reporter such as luciferase makes a cellular process visible.

As to `Cc1ccc(-c2n[nH]c3c2C2(C(=O)N(C)c4ccccc42)N(C)C3=O)c(O)c1` (stereo not shown) [Compound 173], in assay [1], the Apoptosis entry was “increased”. The Proliferation result in assay [2] is reported as “decreased”. In addition, the Circadian period length entry in assay [3] is listed as “decreased”; in assay [3] (listed as compound 173) it was “significantly decreased”.
